Activity calls are given as the source filed them. The rule behind the calls is not given here.
Test system: rodent carcinogenicity bioassays, tumor incidence
Test: CCRIS carcinogenicity studies
Procedure, shortened: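 Archive of carcinogenicity, mutagenicity, tumor promotion and tumor inhibition results drawn from journals, NCI reports and other sources, expert-reviewed; covers 1985-2011 and is no longer updated.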

CCC(=O)CNCN=O
carcinogen call (Species: HAMSTER, Strain/Sex: SYRIAN/FEMALE, Route: SUBCUTANEOUS, Dose: 4, 8, 16 MG/KG 1/WK FOR LIFE, Dose: 4, 8, 16 MG/KG 1/WK FOR LIFE, Tumor Site: Type of Lesion: NASAL CAVITY: ADENOCARCINOMA, PAPILLOMA, MUCOEPIDERMOID TUMOR, LARYNX OR PHARYNX: PAPILLARY POLYP, PAPILLOMA, ORAL CAVIT, Tumor Site: Type of Lesion: NASAL CAVITY: ADENOCARCINOMA, PAPILLOMA, MUCOEPIDERMOID TUMOR, LARYNX OR PHARYNX: PAPILLARY POLYP, PAPILLOMA, ORAL CAVIT): active; positive
carcinogen call (Species: HAMSTER, Strain/Sex: SYRIAN/MALE, Route: SUBCUTANEOUS, Dose: 2.3, 4.6, 9.2 MG/KG 1/WK FOR LIFE, Dose: 2.3, 4.6, 9.2 MG/KG 1/WK FOR LIFE, Tumor Site: Type of Lesion: NASAL CAVITY: ADENOCARCINOMA, PAPILLOMA, MUCOEPIDERMOID TUMOR, LARYNX OR PHARYNX: PAPILLARY POLYP, PAPILLOMA, ORAL CAVIT, Tumor Site: Type of Lesion: NASAL CAVITY: ADENOCARCINOMA, PAPILLOMA, MUCOEPIDERMOID TUMOR, LARYNX OR PHARYNX: PAPILLARY POLYP, PAPILLOMA, ORAL CAVIT): active; positive

CC(=O)Nc1cc(NS(=O)(=O)C(F)(F)F)c(C)cc1C
carcinogen call (Species: Mouse, Strain/Sex: Strain not specified by Department of Pesticide Regulation/Female (60/Group), Route: Oral, Dose: 0, 600, 1800, 6000 ppm of 93% mefluidide in diet for 18-19 mo, study duration 19 mo, Dose: 0, 600, 1800, 6000 ppm of 93% mefluidide in diet for 18-19 mo, study duration 19 mo): inactive; negative
carcinogen call (Species: Mouse, Strain/Sex: Strain not specified by Department of Pesticide Regulation/Male (60/Group), Route: Oral, Dose: 0, 600, 1800, 6000 ppm of 93% mefluidide in diet for 18-19 mo, study duration 19 mo, Dose: 0, 600, 1800, 6000 ppm of 93% mefluidide in diet for 18-19 mo, study duration 19 mo): inactive; negative

CC(CCC(=O)N(CC(=O)O)N=O)C1CCC2C3C(O)CC4C[C@H](O)CCC4(C)C3C[C@H](O)C12C (stereo partly specified)
carcinogen call (Species: RAT, Strain/Sex: F344/MALE, Route: GAVAGE, Dose: 0, 10 MG IN 50 µL DMSO 5 D/WK FOR 6 WK (STUDY DURATION: 108 WK), Tumor Site: Type of Lesion: LIVER: CARCINOMA): active; positive

CC1(C)COC1=O
carcinogen call (Species: MOUSE, Strain/Sex: B6C3F1/FEMALE, Route: GAVAGE, Dose: 0, 75, 150 MG/KG, Dose: 0, 75, 150 MG/KG): inactive; negative
carcinogen call (Species: MOUSE, Strain/Sex: B6C3F1/MALE, Route: GAVAGE, Dose: 0, 75, 150 MG/KG, Dose: 0, 75, 150 MG/KG): inactive; negative
carcinogen call (Species: RAT, Strain/Sex: F344/FEMALE, Route: GAVAGE, Dose: 0, 150, 300 MG/KG, Dose: 0, 150, 300 MG/KG, Tumor Site: Type of Lesion: STOMACH: SQUAMOUS CELL PAPILLOMA OR SQUAMOUS CELL CARCINOMA, UTERUS: ENDOMETRIAL STROMAL POLYP): active; positive
carcinogen call (Species: RAT, Strain/Sex: F344/MALE, Route: GAVAGE, Dose: 0, 150, 300 MG/KG, Dose: 0, 150, 300 MG/KG, Tumor Site: Type of Lesion: STOMACH: SQUAMOUS CELL PAPILLOMA OR SQUAMOUS CELL CARCINOMA, TESTES: INTERSTITIAL CELL TUMOR): active; positive

O=[N+]([O-])c1ccc2ccc3c(O)ccc4ccc1c2c43
carcinogen call (Species: MOUSE, Strain/Sex: B6C3F1/FEMALE, Route: INTRAPERITONEAL, Dose: 0, 7 NMOL (TOTAL DOSE), 1/7, 2/7 AND 4/7 OF THE TOTAL DOSE ADMINISTERED WITHIN 24 HR OF BIRTH AND AT 8 AND 15 D OF AGE): inactive; negative
carcinogen call (Species: MOUSE, Strain/Sex: B6C3F1/MALE, Route: INTRAPERITONEAL, Dose: 0, 7 NMOL (TOTAL DOSE), 1/7, 2/7 AND 4/7 OF THE TOTAL DOSE ADMINISTERED WITHIN 24 HR OF BIRTH AND AT 8 AND 15 D OF AGE): inactive; negative
